The values that follow come from article PMC12246422 (Nature Communications, 2025).

Data set [1] deals with A549-ACE2 cells. The data set is classed as cell-based. The settings on record: 5 μM, 24 hours.
Data set [2] relates to SARS-CoV-2 subgenomic replicon. It is filed as cell-based. The note with it: Vero E6-TMPRSS2 cells, 24 h.
The subject of the next data set is SARS-CoV-2. Nature of the data set: Time-of-addition experiment in Calu-3 cells, plaque assay. It is filed as cell-based.
The conditions of data set [3]: cited from earlier work.
Data set [4] deals with A549-ACE2 cells. It is filed as cell-based.

`Cc1cccc(/C=N/Nc2cc(N3CCOCC3)nc(OCCc3ccccn3)n2)c1` [Apilimod]: the “morphology of A549-ACE2 cells expressing 2xFYVE PI3P marker” value in the data set on A549-ACE2 cells [1] is “cytosolic vacuolation and swelling of membrane structures”. In data set [2], the “viral RNA replication, subgenomic replicon” value is reported as “dose-dependently increased viral RNA replication”. Besides, in the data set with SARS-CoV-2, the time-of-addition profile result is listed as “suppressed SARS-CoV-2 replication when added during the first two hpi, but not at later time points”. Also, in data set [3], the pharmacokinetic profile result is “suboptimal pharmacokinetic profile”.
For the compound `CCN(CC)CCCC(C)Nc1ccnc2cc(Cl)ccc12` (centres unmarked) [chloroquine], the “autolysosome number and autolysosome-to-autophagosome ratio relative to DMSO” value with A549-ACE2 cells [4] is on record as “moderately reduced”.
